Measured values taken from paper PMC6039436, “Radiobrominated benzimidazole-quinoline derivatives as Platelet-derived growth factor receptor beta (PDGFRβ) imaging probes” (Scientific Reports, 2018).
Marks after values point to notes of the source that are not given here.

Tests used:
[1] = Biodistribution in ddY mice; format: in vivo; conditions: i.v. co-injection
Description: In this study, to minimize both the number of mice consumed in the experiment and the potential for experimental errors, we co-injected radiobrominated and radioiodinated compounds into mice[30],[31]. High radioactivity in the liver, small intestine, and large intestine was observed.
(§1) Mice were intravenously injected via the tail with 100 µL of saline solution of [^77Br]2 and [^125I]4 or [^77Br]3 and [^125I]5 (74 kBq, respectively), containing 10% ethanol and 1% tween-80. The ddY mice were sacrificed at 10 min, 1, 4, and 24 h postinjection. Meanwhile, tumor-bearing mice were sacrificed at 1 h postinjection.
(§2) Tissues in mice were resected and weighed. The radioactivity of the tissues was counted by a gamma counter and counts were corrected for background radiation. The data were expressed as percent injection dose per gram tissue (%ID/g).

[2] = system: BxPC3-luc tumor; test: Biodistribution in BxPC3-luc tumor-bearing mice; format: in vivo, BALB/c nu/nu mice; conditions: i.v. co-injection, 1 h
Description: We investigated the biodistribution of the radiotracers in BxPC3-luc tumor-bearing mice by co-injecting [^77Br]2 with [^125I]4 (Table 3), and [^77Br]3 with [^125I]5 (Table 4).
Animal experiments were conducted in strict accordance with the Guidelines for the Care and Use of Laboratory Animals of Kanazawa University. The animal experimental protocols used were approved by the Committee on Animal Experimentation of Kanazawa University (Permit Number: AP-163766). The animals were housed with free access to food and water at approximately 23 °C with a 12 h light/dark schedule. ddY mice (six-week-old, male, 27–30 g) and BALB/c nu/nu mice (four-week-old, female, 12–17 g) were purchased from Japan SLC Inc. (Hamamatsu, Japan). For preparing the tumor-bearing mice, BxPC3-luc cells (5 × 10^6 cells) were subcutaneously injected into the left shoulder of BALB/c nu/nu mice. The tumor reached palpable size after two weeks of the inoculation.
as §1, §2

[3] = design: method as in PMID 28838832; conditions: radioiodinated compounds; cited from earlier work

In the case of COCCOc1ccc2c(c1)ncn2-c1ccc2cccc(N3CCC(NC(=O)c4cccc([125I])c4)CC3)c2n1 [[^125I]5, [^125I]N-3-iodobenzoyl-1-{2-[5-(2-methoxyethoxy)-1H-benzo[d]imidazol-1-yl]quinolin-8-yl}-piperidin-4-amine, reference compound], the “Radioactivity in Blood” value ([1]; 10 min) is reported as 0.94 (0.14)^** %injected dose/gram tissue, the “Radioactivity in Bone” value ([1]; 10 min) is reported as 0.81 (0.11)^** %injected dose/gram tissue and the “Radioactivity in Brain” value ([1]; 10 min) is reported as 0.19 (0.03)^** %injected dose/gram tissue. The “Radioactivity in Heart” value ([1]; 10 min) was 1.66 (0.23)^** %injected dose/gram tissue, the “Radioactivity in Kidney” value ([1]; 10 min) was 5.23 (0.65) %injected dose/gram tissue and the “Radioactivity in Large intestine” value ([1]; 10 min) was 0.75 (0.06)^* %injected dose/gram tissue. For the same compound, the “Radioactivity in Liver” value ([1]; 10 min) was 16.37 (2.05)^** %injected dose/gram tissue, the “Radioactivity in Lung” value ([1]; 10 min) was 1.80 (0.30)^* %injected dose/gram tissue and the “Radioactivity in Muscle” value ([1]; 10 min) was 0.97 (0.16)^* %injected dose/gram tissue. For the same compound, the “Radioactivity in Pancreas” value ([1]; 10 min) was 2.41 (0.20) %injected dose/gram tissue, the “Radioactivity in Small intestine” value ([1]; 10 min) was 9.59 (1.71)^** %injected dose/gram tissue and the “Radioactivity in Spleen” value ([1]; 10 min) was 1.72 (0.23) %injected dose/gram tissue. The “Radioactivity in Stomach” value ([1]; 10 min) was 2.09 (1.12) %injected dose /organ, the “Radioactivity in Blood” value ([1]; 1 h) was 0.26 (0.05)^** %injected dose/gram tissue and the “Radioactivity in Bone” value ([1]; 1 h) was 0.64 (0.31)^*** %injected dose/gram tissue. The “Radioactivity in Brain” value ([1]; 1 h) was 0.07 (0.03)^** %injected dose/gram tissue, the “Radioactivity in Heart” value ([1]; 1 h) was 0.39 (0.15)^** %injected dose/gram tissue and the “Radioactivity in Kidney” value ([1]; 1 h) was 1.57 (0.42) %injected dose/gram tissue. The “Radioactivity in Large intestine” value ([1]; 1 h) was 3.46 (2.18) %injected dose/gram tissue, the “Radioactivity in Liver” value ([1]; 1 h) was 3.32 (0.49)^** %injected dose/gram tissue and the “Radioactivity in Lung” value ([1]; 1 h) was 1.07 (0.08) %injected dose/gram tissue. The “Radioactivity in Muscle” value ([1]; 1 h) was 0.31 (0.13)^* %injected dose/gram tissue, the “Radioactivity in Pancreas” value ([1]; 1 h) was 0.86 (0.07)^** %injected dose/gram tissue and the “Radioactivity in Small intestine” value ([1]; 1 h) was 24.03 (1.45)^** %injected dose/gram tissue. The “Radioactivity in Spleen” value ([1]; 1 h) was 0.70 (0.16)^** %injected dose/gram tissue, the “Radioactivity in Stomach” value ([1]; 1 h) was 0.78 (0.19) %injected dose /organ and the “Radioactivity in Blood” value ([1]; 4 h) was 0.08 (0.01)^** %injected dose/gram tissue. The “Radioactivity in Bone” value ([1]; 4 h) was 0.40 (0.09)^** %injected dose/gram tissue, the “Radioactivity in Brain” value ([1]; 4 h) was 0.01 (0.00)^** %injected dose/gram tissue and the “Radioactivity in Heart” value ([1]; 4 h) was 0.20 (0.04)^** %injected dose/gram tissue. The “Radioactivity in Kidney” value ([1]; 4 h) was 0.36 (0.10)^* %injected dose/gram tissue, the “Radioactivity in Large intestine” value ([1]; 4 h) was 18.55 (1.85)^** %injected dose/gram tissue and the “Radioactivity in Liver” value ([1]; 4 h) was 1.21 (0.96) %injected dose/gram tissue. The “Radioactivity in Lung” value ([1]; 4 h) was 0.50 (0.19) %injected dose/gram tissue, the “Radioactivity in Muscle” value ([1]; 4 h) was 0.16 (0.08)^* %injected dose/gram tissue and the “Radioactivity in Pancreas” value ([1]; 4 h) was 0.27 (0.07)^** %injected dose/gram tissue. For the same compound, the “Radioactivity in Small intestine” value ([1]; 4 h) was 1.32 (0.66)^* %injected dose/gram tissue, the “Radioactivity in Spleen” value ([1]; 4 h) was 0.27 (0.09)^** %injected dose/gram tissue and the “Radioactivity in Stomach” value ([1]; 4 h) was 0.27 (0.10) %injected dose /organ. The “Radioactivity in Blood” value ([1]; 24 h) was 0.01 (0.00)^** %injected dose/gram tissue, the “Radioactivity in Bone” value ([1]; 24 h) was 0.06 (0.00)^** %injected dose/gram tissue and the “Radioactivity in Brain” value ([1]; 24 h) was 0.00 (0.00)^** %injected dose/gram tissue. The “Radioactivity in Heart” value ([1]; 24 h) was 0.02 (0.01)^** %injected dose/gram tissue, the “Radioactivity in Kidney” value ([1]; 24 h) was 0.05 (0.00)^** %injected dose/gram tissue and the “Radioactivity in Large intestine” value ([1]; 24 h) was 0.02 (0.00)^** %injected dose/gram tissue. For the same compound, the “Radioactivity in Liver” value ([1]; 24 h) was 0.06 (0.00)^** %injected dose/gram tissue, the “Radioactivity in Lung” value ([1]; 24 h) was 0.01 (0.00)^** %injected dose/gram tissue and the “Radioactivity in Muscle” value ([1]; 24 h) was 0.01 (0.00)^** %injected dose/gram tissue. For the same compound, the “Radioactivity in Pancreas” value ([1]; 24 h) was 0.02 (0.00)^** %injected dose/gram tissue, the “Radioactivity in Small intestine” value ([1]; 24 h) was 0.01 (0.00)^** %injected dose/gram tissue and the “Radioactivity in Spleen” value ([1]; 24 h) was 0.02 (0.00)^** %injected dose/gram tissue. The “Radioactivity in Stomach” value ([1]; 24 h) was 0.01 (0.00)^** %injected dose /organ, the “Radioactivity in Blood” value [2] was 0.23 (0.02)^** %injected dose/gram of tissue and the “Radioactivity in Bone” value [2] was 0.31 (0.04)^** %injected dose/gram of tissue. The “Radioactivity in Brain” value [2] was 0.05 (0.00)^** %injected dose/gram of tissue, the “Radioactivity in BxPC3-luc tumor” value [2] was 0.55 (0.09)^* %injected dose/gram of tissue and the “Radioactivity in Heart” value [2] was 0.42 (0.05)^** %injected dose/gram of tissue. For the same compound, the “Radioactivity in Kidney” value [2] was 1.13 (0.11)^** %injected dose/gram of tissue, the “Radioactivity in Large intestine” value [2] was 7.98 (3.79) %injected dose/gram of tissue and the “Radioactivity in Liver” value [2] was 4.83 (0.71)^** %injected dose/gram of tissue. For the same compound, the “Radioactivity in Lung” value [2] was 1.16 (0.23)^** %injected dose/gram of tissue, the “Radioactivity in Muscle” value [2] was 0.38 (0.06)^** %injected dose/gram of tissue and the “Radioactivity in Pancreas” value [2] was 1.25 (0.17)^** %injected dose/gram of tissue. The “Radioactivity in Small intestine” value [2] was 46.95 (2.88)^** %injected dose/gram of tissue, the “Radioactivity in Spleen” value [2] was 0.61 (0.06)^** %injected dose/gram of tissue and the “Radioactivity in Stomach” value [2] was 0.27 (0.06)^* %injected dose /organ. The “n-octanol/phosphate buffer partition coefficient (log P)” value [3] was 3.19 ± 0.17.
